Reference: PubChem BioAssay AID1963828 (Molecular Pharmacology Branch, DTP, NCI, 2024)

Tested on: 991263-137-R1-J2-PDC complex spheroid viability
Assay: Anticancer human tumor 991263-137-R1-J2-PDC patient-derived colon adenocarcinoma cell line growth inhibition [POLQ]
Conditions: for IC50: curve of first compound; for viability, T/C: stronger effect = lower value
Experimental: Multicellular complex tumor spheroid response to Polymerase (POL) inhibitors (novobiocin, ART-558, RP6685) in combination with a variety of drugs and investigational agents in selected tumor cell lines
The POL inhibitors (novobiocin, ART-558, and RP6685) were evaluated both individually and in combination with standard of care and investigational anticancer small molecules within a complex spheroid model of solid tumors. . Complex spheroids include a stromal component modeled by human endothelial cells (HUVEC) and fibroblasts modeled by human mesenchymal stem cells (MSCs). The concentration ranges selected for each drug and investigational agent were based upon clinically achievable concentrations if the clinical Cmax of the agent was known.
Compounds. The drugs and investigational agents: novobiocin (NSC847541), ART-558 (NSC835418), RP-6685 (NSC848927), peposertib (NSC802822), ceralasertib (NSC780249), elimusertib (NSC800525), camonsertib (NSC841442), AZD-1390 (NSC803789), olaparib (NSC753686), talazoparib (NSC767125), rucaparib (NSC756644), sotorasib (NSC818433), MRTX-1133 (NSC836407), SN-38 (NSC673596), topotecan (NSC609699), epotoside (NSC141540), doxorubicin (NSC123127), gemcitabine (NSC613327), 5-fluorouracil (NSC19893), paclitaxel (NSC125973), vemurafenib (NSC761431), MSA-2 (NSC828583), SN-011 (NSC837082), adavosertib (NSC754352), prexasertib (NSC758257), carboplatin (NSC241240) and oxaliplatin (NSC266046), were obtained from the National Cancer Institute (NCI) Developmental Therapeutics Program Chemical Repository (21). The FDA-approved anticancer drug set is available from the Developmental Therapeutics Program at https://dtp.cancer.gov/organization/dscb/obtaining/. […] The stock solutions were prepared in dimethyl sulfoxide (DMSO, Sigma-Aldrich, St. Louis, MO, cat. D2650), except for the platinum compounds which were prepared in saline (Quality Biological, Gaithersburg, MD, cat. 114-055-101), at 800-fold the tested concentration and stored at -70 degrees C prior to their use. All drugs and investigational agents were tested over a range starting from a high concentration at or near the clinical Cmax and decreasing in half-log increments. If the clinical Cmax for an agent had not been determined, the highest concentration tested was 10 microM, except for SN-38, which was tested at a high concentration of 1 microM.
Cell Culture. All cells were maintained in an incubator at 37 degrees C and 5% CO2 with 95% humidity. The PDC lines were cultured according to standard operating procedures established by the NCI PDMR (https://pdmr.cancer.gov). Table 3 of the manuscript, lists the cell lines along with the number of the three cell types plated to form the mct-spheroids and media for tumor cell growth. After thawing, all PDC lines, except 997537-175-T-J1-PDC and 415267-285-R-J2-PDC, were cultured in Matrigel-coated flasks prepared with a working solution of 1X Ham's F-12 nutrient mix, without supplementation (Thermo Fisher Scientific, cat. 11765054), 100 U/mL penicillin-streptomycin (Thermo Fisher Scientific, cat. 15140122), and 2.5% Matrigel (Corning Inc., Corning, NY, cat. 354248) for the first three passages. The two PDC lines 997537-175-T-J1-PDC and 415267-285-R-J2-PDC were cultured on uncoated flasks. The 857933-349-R-J2-PDC line was cultured in 6C/Colon 1B media containing advanced DMEM/F-12 (Thermo Fisher Scientific, cat. 12634028), 10 mM HEPES (Thermo Fisher Scientific, cat. 15630080), 1X GlutaMAX supplement (Thermo Fisher Scientific, cat. 35050061), 0.1 mg/mL primocin (InvivoGen, San Diego, CA, cat. ant-pm-2), 10% defined fetal bovine serum, heat inactivated (HyClone Laboratories Inc., Logan, UT, cat. SH30070.03HI), 50% L-WRN conditioned media (ATCC, cat. CRL-3276), 1.25 mM N-Acetyl-L-cysteine (Sigma-Aldrich, cat. A9165), 10 mM nicotinamide (Sigma-Aldrich, cat. N0636), 1X B-27 supplement (Thermo Fisher Scientific, cat. 17504044), 1X N-2 supplement (Thermo Fisher Scientific, cat. […]

[1] = second compound 0.0316 µM, first compound 0.0316 µM
[2] = second compound 0.0316 µM, first compound 0.1 µM
[3] = second compound 0.1 µM, first compound 0.0316 µM
[4] = second compound 0.1 µM, first compound 0.1 µM
[5] = second compound 0.316 µM, first compound 0.0316 µM
[6] = second compound 0.316 µM, first compound 0.1 µM
[7] = second compound 1 µM, first compound 0.0316 µM
[8] = second compound 1 µM, first compound 0.1 µM
[9] = second compound 3.16 µM, first compound 0.0316 µM
[10] = second compound 3.16 µM, first compound 0.1 µM
[11] = second compound 10 µM, first compound 0.0316 µM
[12] = second compound 10 µM, first compound 0.1 µM
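Further: spheroids exposed to compounds for 7 days before readout.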
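Wherever viability, T/C is given: 100% = DMSO vehicle control viability.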

CCc1cc2c(N3CCc4c(cc(Cn5ccnc5)cc4-c4cn(C)nc4C(F)(F)F)C3=O)cc(C)nc2c(OC)n1 + Nc1ccc(C#CCN(C(=O)Cc2ncc(C(F)(F)F)cc2C(F)(F)F)c2ccc(F)cc2)nn1 was tested, and the IC50 (second compound 0.0316 µM) was > 10 µM, the IC50 (second compound 0.1 µM) was > 10 µM and the IC50 (second compound 0.316 µM) was > 10 µM. For the same compound, the IC50 (second compound 1 µM) was > 10 µM, the IC50 (second compound 3.16 µM) was > 10 µM and the IC50 (second compound 10 µM) was > 10 µM. It also gave a viability, T/C [1] of 99.3%, a viability, T/C [2] of 104% and a viability, T/C (second compound 0.0316 µM, first compound 0.316 µM) of 107%. The viability, T/C (second compound 0.0316 µM, first compound 1 µM) was 98.7%, the viability, T/C (second compound 0.0316 µM, first compound 3.16 µM) was 89.8% and the viability, T/C (second compound 0.0316 µM, first compound 10 µM) was 92.2%. The viability, T/C [3] was 105%, the viability, T/C [4] was 99.9% and the viability, T/C (second compound 0.1 µM, first compound 0.316 µM) was 102%. For the same compound, the viability, T/C (second compound 0.1 µM, first compound 1 µM) was 98.2%, the viability, T/C (second compound 0.1 µM, first compound 3.16 µM) was 109% and the viability, T/C (second compound 0.1 µM, first compound 10 µM) was 96.9%. For the same compound, the viability, T/C [5] was 102%, the viability, T/C [6] was 112% and the viability, T/C (second compound 0.316 µM, first compound 0.316 µM) was 103%. It also gave a viability, T/C (second compound 0.316 µM, first compound 1 µM) of 103%, a viability, T/C (second compound 0.316 µM, first compound 3.16 µM) of 87.7% and a viability, T/C (second compound 0.316 µM, first compound 10 µM) of 104%. For the same compound, the viability, T/C [7] was 107%, the viability, T/C [8] was 107% and the viability, T/C (second compound 1 µM, first compound 0.316 µM) was 93.2%. It also gave a viability, T/C (second compound 1 µM, first compound 1 µM) of 90.5%, a viability, T/C (second compound 1 µM, first compound 3.16 µM) of 104% and a viability, T/C (second compound 1 µM, first compound 10 µM) of 93%. It also gave a viability, T/C [9] of 94.6%, a viability, T/C [10] of 99.9% and a viability, T/C (second compound 3.16 µM, first compound 0.316 µM) of 98.6%. For the same compound, the viability, T/C (second compound 3.16 µM, first compound 1 µM) was 96.6%, the viability, T/C (second compound 3.16 µM, first compound 3.16 µM) was 95.6% and the viability, T/C (second compound 3.16 µM, first compound 10 µM) was 83.9%. The viability, T/C [11] was 94.6%, the viability, T/C [12] was 103% and the viability, T/C (second compound 10 µM, first compound 0.316 µM) was 98.2%. The viability, T/C (second compound 10 µM, first compound 1 µM) was 92.7%, the viability, T/C (second compound 10 µM, first compound 3.16 µM) was 94.9% and the viability, T/C (second compound 10 µM, first compound 10 µM) was 93.2%.
In the case of Cn1ncnc1[C@H]1c2n[nH]c(=O)c3cc(F)cc(c23)N[C@@H]1c1ccc(F)cc1 + Nc1ccc(C#CCN(C(=O)Cc2ncc(C(F)(F)F)cc2C(F)(F)F)c2ccc(F)cc2)nn1, the IC50 (second compound 0.0316 µM) is reported as > 0.1 µM, the IC50 (second compound 0.1 µM) is reported as > 0.1 µM and the IC50 (second compound 0.316 µM) is reported as > 0.1 µM. The IC50 (second compound 1 µM) was > 0.1 µM, the IC50 (second compound 3.16 µM) was > 0.1 µM and the IC50 (second compound 10 µM) was > 0.1 µM. It also gave a viability, T/C (second compound 0.0316 µM, first compound 0.000316 µM) of 106%, a viability, T/C (second compound 0.0316 µM, first compound 0.001 µM) of 97.1% and a viability, T/C (second compound 0.0316 µM, first compound 0.00316 µM) of 99.6%. For the same compound, the viability, T/C (second compound 0.0316 µM, first compound 0.01 µM) was 98.8%, the viability, T/C [1] was 106% and the viability, T/C [2] was 94%. The viability, T/C (second compound 0.1 µM, first compound 0.000316 µM) was 99.1%, the viability, T/C (second compound 0.1 µM, first compound 0.001 µM) was 102% and the viability, T/C (second compound 0.1 µM, first compound 0.00316 µM) was 95.2%. For the same compound, the viability, T/C (second compound 0.1 µM, first compound 0.01 µM) was 107%, the viability, T/C [3] was 106% and the viability, T/C [4] was 110%. The viability, T/C (second compound 0.316 µM, first compound 0.000316 µM) was 93.7%, the viability, T/C (second compound 0.316 µM, first compound 0.001 µM) was 95.1% and the viability, T/C (second compound 0.316 µM, first compound 0.00316 µM) was 94.2%. The viability, T/C (second compound 0.316 µM, first compound 0.01 µM) was 105%, the viability, T/C [5] was 109% and the viability, T/C [6] was 82.9%. It also gave a viability, T/C (second compound 1 µM, first compound 0.000316 µM) of 96.8%, a viability, T/C (second compound 1 µM, first compound 0.001 µM) of 103% and a viability, T/C (second compound 1 µM, first compound 0.00316 µM) of 112%. The viability, T/C (second compound 1 µM, first compound 0.01 µM) was 109%, the viability, T/C [7] was 104% and the viability, T/C [8] was 94.5%. It also gave a viability, T/C (second compound 3.16 µM, first compound 0.000316 µM) of 101%, a viability, T/C (second compound 3.16 µM, first compound 0.001 µM) of 92% and a viability, T/C (second compound 3.16 µM, first compound 0.00316 µM) of 98.3%. For the same compound, the viability, T/C (second compound 3.16 µM, first compound 0.01 µM) was 97.7%, the viability, T/C [9] was 101% and the viability, T/C [10] was 112%. The viability, T/C (second compound 10 µM, first compound 0.000316 µM) was 99.3%, the viability, T/C (second compound 10 µM, first compound 0.001 µM) was 106% and the viability, T/C (second compound 10 µM, first compound 0.00316 µM) was 97.1%. For the same compound, the viability, T/C (second compound 10 µM, first compound 0.01 µM) was 103%, the viability, T/C [11] was 101% and the viability, T/C [12] was 110%.
